≈ marks a conversion by molar mass, not a printed value. Read-outs that look alike come from different tables or passages of the source. Starred links: 1 amine or outer side, 2 acyl side, 3 side chain; linkers in the order of their positions; H or OH if unused. Positions of bridges follow the written chain, without caps; N, C: chain ends. Residues, ends and D or L forms follow the SMILES beside them. Groups on a side chain read outwards from the residue. *: point of attachment. C20 diacid = O=C(O)CCCCCCCCCCCCCCCCCCC(=O)*; C18 diacid = O=C(O)CCCCCCCCCCCCCCCCC(=O)*; γGlu = O=C(O)[C@H](CCC(=O)[*:2])N[*:1]; AEEA = NCCOCCOCC(=O)O
Assays:
[1] = target: T1, human calcitonin receptor (Homo sapiens, UniProt P30988); assay: Assay (II)a functional CRE-luciferase assay, human calcitonin receptor; type: cell-based
T1 construct: expressed in transfected cells; host or cells: BHK570
T1 sequence (P30988 25-474): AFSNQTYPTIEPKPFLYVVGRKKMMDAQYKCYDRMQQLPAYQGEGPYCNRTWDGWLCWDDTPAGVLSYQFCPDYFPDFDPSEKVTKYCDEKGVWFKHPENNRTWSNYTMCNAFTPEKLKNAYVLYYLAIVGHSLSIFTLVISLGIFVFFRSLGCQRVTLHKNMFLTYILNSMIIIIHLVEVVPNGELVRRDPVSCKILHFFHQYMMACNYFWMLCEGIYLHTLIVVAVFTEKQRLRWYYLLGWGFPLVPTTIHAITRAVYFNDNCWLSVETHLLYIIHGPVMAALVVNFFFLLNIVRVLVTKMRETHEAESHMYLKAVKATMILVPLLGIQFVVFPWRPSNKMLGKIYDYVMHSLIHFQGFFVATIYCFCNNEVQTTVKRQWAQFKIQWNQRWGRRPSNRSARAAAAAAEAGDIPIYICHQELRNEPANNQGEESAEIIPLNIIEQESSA

[2] = target: T2, human amylin receptor (amylin 3(a) receptor: human calcitonin receptor + RAMP-3) (Homo sapiens, UniProt O60896+P30988); assay: Assay (II)a functional CRE-luciferase assay, human amylin receptor; type: cell-based; conditions: Table 2; BHK amylin 3(a)-receptor/CRE-luc cells
T2 construct: expressed in transfected cells; host or cells: BHK570
T2 sequence (P30988 25-474): T1 sequence (P30988 25-474)
T2 sequence (O60896 24-148 partner): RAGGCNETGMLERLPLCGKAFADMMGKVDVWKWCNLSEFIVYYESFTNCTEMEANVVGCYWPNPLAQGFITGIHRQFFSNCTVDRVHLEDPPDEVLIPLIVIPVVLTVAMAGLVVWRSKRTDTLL

[3] = Assay (III) ThT fibrillation assay for physical stability; type: physicochemical
How it was run: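 Freshly prepared formulations, pH-adjusted, with 1 μM ThT; four or eight replicates incubated at 37 °C under 960 rpm orbital shaking. Fluorescence (ex 444/em 485 nm) read every 20 min; […]. Peptide concentration measured by RP-HPLC before and after the run.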

[4] = Assay (IV) determination of solubility; type: physicochemical
How it was run: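 Solubility was profiled across pH 3.0–8.0 after 18 hours at room temperature: a ~500 nmol/ml aqueous polypeptide solution was diluted 1:1 into 100 mM glycylglycine or bistrispropane buffers. After centrifugation, HPLC gave the dissolved concentration.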

[5] = Table 7, human calcitonin (CTa) receptor
[6] = bistrispropane buffer, pH 6, pH 6.0, read-out: Solubility pH 6.0
[7] = bistrispropane buffer, pH 6.5, pH 6.5, read-out: Solubility pH 6.5
[8] = bistrispropane buffer, pH 7, pH 7.0, 18 hours at room temperature, Table 3, read-out: Solubility pH 7.0
[9] = bistrispropane buffer, pH 7, pH 7.0, read-out: Solubility pH 7.0
[10] = bistrispropane buffer, pH 7.5, pH 7.5, read-out: Solubility pH 7.5
[11] = bistrispropane buffer, pH 8, pH 8.0, read-out: Solubility pH 8.0
[12] = glycylglycine buffer, pH 3, pH 3.0, read-out: Solubility pH 3.0
[13] = glycylglycine buffer, pH 4, pH 4.0, 18 hours at room temperature, Table 2, read-out: Solubility pH 4.0
[14] = glycylglycine buffer, pH 4, pH 4.0, read-out: Solubility pH 4.0
[15] = glycylglycine buffer, pH 5, pH 5.0, read-out: Solubility pH 5.0
[16] = bistrispropane buffer, pH 7, pH 7.0, Table 8, read-out: Solubility pH 7.0

EC50 [1, 5] [pM]	EC50 [2] [pM]	ThT pH 4.0 lag time (h) ([3]; ThT fibrillation assay)	solubility at 18 h [4, 6] [µM]	solubility at 18 h [4, 7] [µM]	solubility at 18 h [4, 8] [µM]	solubility at 18 h [4, 9] [µM]	solubility at 18 h [4, 10] [µM]	solubility at 18 h [4, 11] [µM]	solubility at 18 h [4, 12] [µM]	solubility at 18 h [4, 13] [µM]	solubility at 18 h [4, 14] [µM]	solubility at 18 h [4, 15] [µM]	EC50 ([1]; Table 11, read-out: CTa receptor human EC50) [pM]	ThT pH 4.0 lag time ([3]; Table 8) [h]	ThT pH 4.0 lag time ([3]; Table 9) [h]	ThT pH 4.0 lag time ([3]; ThT fibrillation assay) [h]	solubility at 18 h [4, 16] [µM]	solubility at 18 h ([4]; bistrispropane buffer, pH 7, pH 7.0, Table 9, read-out: Solubility pH 7.0) [µM]	solubility at 18 h ([4]; bistrispropane buffer, pH 7.5, pH 7.5, Table 9, read-out: Solubility pH 7.5) [µM]	Compound
496	1510	1.3	> 200	> 200	> 200	> 200	> 200	> 200	> 200	> 200	> 200	> 200	–	–	–	–	–	–	–	CC[C@H](C)[C@H](NC(=O)[C@@H]1CCCN1C(=O)CNC(=O)[C@H](Cc1ccccc1)NC(=O)[C@H](CC(N)=O)NC(=O)[C@H](CCC(N)=O)NC(=O)[C@H](CO)NC(=O)[C@H](CO)NC(=O)[C@H](Cc1c[nH]cn1)NC(=O)[C@@H](NC(=O)[C@H](CC(C)C)NC(=O)[C@H](Cc1ccccc1)NC(=O)[C@H](CCC(=O)O)NC(=O)[C@H](C)NC(=O)[C@H](CC(C)C)NC(=O)[C@H](CCCNC(=N)N)NC(=O)[C@H](CCC(N)=O)NC(=O)[C@@H](NC(=O)[C@H](C)NC(=O)[C@@H]1CSSC[C@H](NC(=O)[C@H](CCC(=O)O)NC(=O)CC[C@H](NC(=O)CCCCCCCCCCCCCCCCCCC(=O)O)C(=O)O)C(=O)N[C@@H](CC(N)=O)C(=O)N[C@@H]([C@@H](C)O)C(=O)N[C@@H](C)C(=O)N[C@@H]([C@@H](C)O)C(=O)N1)[C@@H](C)O)C(C)C)C(=O)N[C@@H](CC(C)C)C(=O)N1CCC[C@H]1C(=O)N1CCC[C@H]1C(=O)N[C@H](C(=O)N[C@@H](CC(N)=O)C(=O)N[C@H](C(=O)NCC(=O)N[C@@H](CO)C(=O)N[C@@H](CCC(N)=O)C(=O)N[C@H](C(=O)N1CCC[C@H]1C(N)=O)[C@@H](C)O)C(C)C)[C@@H](C)O [Example 138, N-alpha-[(S)-4-Carboxy-4-(19-carboxynonadecanoylamino)butyryl]-[Glu1,Glu14,Gln21,Gln35,Pro37]-pramlintide] ({C20 diacid-γGlu}-ECNTATCATQRLAEFLVHSSQNFGPILPPTNVGSQTP-NH2; disulfide 2-7)
–	1750	>45	> 200	> 200	> 200	> 200	> 200	> 200	> 200	> 200	> 200	> 200	8430	>45	>45	>45	> 200	> 200	> 200	CC[C@H](C)[C@H](NC(=O)[C@@H]1CCCN1C(=O)CNC(=O)[C@H](Cc1ccccc1)NC(=O)[C@H](CC(N)=O)NC(=O)[C@H](CO)NC(=O)[C@H](CO)NC(=O)[C@H](CO)NC(=O)[C@H](Cc1c[nH]cn1)NC(=O)[C@H](CCCCNC(=O)COCCOCCNC(=O)COCCOCCNC(=O)CC[C@H](NC(=O)CCCCCCCCCCCCCCCCC(=O)O)C(=O)O)NC(=O)[C@H](CC(C)C)NC(=O)[C@H](Cc1ccccc1)NC(=O)[C@H](CCC(=O)O)NC(=O)[C@H](C)NC(=O)[C@H](CC(C)C)NC(=O)[C@H](CCCNC(=N)N)NC(=O)[C@H](CCC(N)=O)NC(=O)[C@@H](NC(=O)[C@H](C)NC(=O)[C@@H]1CSSC[C@H](NC(=O)[C@@H](N)CCCCN)C(=O)N[C@@H](CC(N)=O)C(=O)N[C@@H]([C@@H](C)O)C(=O)N[C@@H](C)C(=O)N[C@@H]([C@@H](C)O)C(=O)N1)[C@@H](C)O)C(=O)N[C@@H](CC(C)C)C(=O)N1CCC[C@H]1C(=O)N1CCC[C@H]1C(=O)N[C@H](C(=O)N[C@@H](CC(N)=O)C(=O)N[C@H](C(=O)NCC(=O)N[C@@H](CO)C(=O)N[C@@H](CCC(=O)O)C(=O)N[C@H](C(=O)N[C@@H](Cc1ccc(O)cc1)C(N)=O)[C@@H](C)O)C(C)C)[C@@H](C)O [Example 83, N-epsilon17-[2-(2-{2-[2-(2-{2-[(S)-4-Carboxy-4-(17-carboxyheptadecanoylamino)butyrylamino]ethoxy}ethoxy)acetylamino]ethoxy}ethoxy)acetyl]-[Glu14,Lys17,Ser21,Glu35]-pramlintide] (H-KCNTATCATQRLAEFLK([AEEA-AEEA-γGlu-C18 diacid])HSSSNFGPILPPTNVGSETY-NH2; disulfide 2-7 (inferred); N-terminus and C-terminus assumed)
52	54	29	> 200	> 200	> 200	> 200	> 200	> 200	> 200	> 200	> 200	> 200	–	29	–	29	> 200	–	–	CC[C@H](C)[C@H](NC(=O)[C@@H]1CCCN1C(=O)CNC(=O)[C@H](Cc1ccccc1)NC(=O)[C@H](CC(N)=O)NC(=O)[C@H](CC(N)=O)NC(=O)[C@H](CO)NC(=O)[C@H](CO)NC(=O)[C@H](Cc1c[nH]cn1)NC(=O)[C@H](Cc1c[nH]cn1)NC(=O)[C@H](CC(C)C)NC(=O)[C@H](Cc1ccccc1)NC(=O)[C@H](CCC(=O)O)NC(=O)[C@H](C)NC(=O)[C@H](CC(C)C)NC(=O)[C@H](CCCNC(=N)N)NC(=O)[C@H](CCC(N)=O)NC(=O)[C@@H](NC(=O)[C@H](C)NC(=O)[C@@H]1CSSC[C@H](NC(=O)CNC(=O)CC[C@H](NC(=O)CCCCCCCCCCCCCCCCCCC(=O)O)C(=O)O)C(=O)N[C@@H](CC(N)=O)C(=O)N[C@@H]([C@@H](C)O)C(=O)N[C@@H](C)C(=O)N[C@@H]([C@@H](C)O)C(=O)N1)[C@@H](C)O)C(=O)N[C@@H](CC(C)C)C(=O)N1CCC[C@H]1C(=O)N1CCC[C@H]1C(=O)N[C@H](C(=O)N[C@@H](CC(N)=O)C(=O)N[C@H](C(=O)NCC(=O)N[C@@H](CO)C(=O)N[C@@H](CC(N)=O)C(=O)N[C@H](C(=O)N1CCC[C@H]1C(N)=O)[C@@H](C)O)C(C)C)[C@@H](C)O [Example 91, N-alpha-[(S)-4-Carboxy-4-(19-carboxynonadecanoylamino)butyryl]-[Gly1,Glu14,His17,Pro37]-pramlintide] ({C20 diacid-γGlu}-GCNTATCATQRLAEFLHHSSNNFGPILPPTNVGSNTP-NH2; disulfide 2-7 (inferred); C-terminus assumed)
802	286	1.3	17 (≈ 81 µg/mL)	–	–	–	9 (≈ 42.9 µg/mL)	66 (≈ 314 µg/mL)	> 200	> 200	> 200	194 (≈ 924 µg/mL)	–	–	–	–	–	–	–	CC[C@H](C)[C@H](NC(=O)[C@@H]1CCCN1C(=O)CNC(=O)[C@H](Cc1ccccc1)NC(=O)[C@H](CC(N)=O)NC(=O)[C@H](CC(N)=O)NC(=O)[C@H](CO)NC(=O)[C@H](CO)NC(=O)[C@H](Cc1c[nH]cn1)NC(=O)[C@H](Cc1c[nH]cn1)NC(=O)[C@H](CC(C)C)NC(=O)[C@H](Cc1ccccc1)NC(=O)[C@H](CCC(=O)O)NC(=O)[C@H](C)NC(=O)[C@H](CC(C)C)NC(=O)[C@H](CCCNC(=N)N)NC(=O)[C@H](CCC(N)=O)NC(=O)[C@@H](NC(=O)[C@H](C)NC(=O)[C@@H]1CSSC[C@H](NC(=O)[C@H](Cc2c[nH]cn2)NC(=O)[C@H](Cc2c[nH]cn2)NC(=O)[C@H](Cc2c[nH]cn2)NC(=O)CC[C@H](NC(=O)CCCCCCCCCCCCCCCCCCC(=O)O)C(=O)O)C(=O)N[C@@H](Cc2c[nH]cn2)C(=O)N[C@@H]([C@@H](C)O)C(=O)N[C@@H](C)C(=O)N[C@@H]([C@@H](C)O)C(=O)N1)[C@@H](C)O)C(=O)N[C@@H](CC(C)C)C(=O)N1CCC[C@H]1C(=O)N1CCC[C@H]1C(=O)N[C@H](C(=O)N[C@@H](CC(N)=O)C(=O)N[C@H](C(=O)NCC(=O)N[C@@H](CO)C(=O)N[C@@H](CC(N)=O)C(=O)N[C@H](C(=O)N[C@@H](Cc1ccc(O)cc1)C(N)=O)[C@@H](C)O)C(C)C)[C@@H](C)O [Example 35, N-alpha-[(S)-4-Carboxy-4-(19-carboxynonadecanoylamino)butyryl]-His-His-[His1,His3,Glu14,His17]-pramlintide] ({C20 diacid-γGlu}-HHHCHTATCATQRLAEFLHHSSNNFGPILPPTNVGSNTY-NH2; disulfide 4-9)
